Reference: article PMC11124394, “Novel Combretastatin A-4 Analogs—Design, Synthesis, and Antiproliferative and Anti-Tubulin Activity” (Molecules, 2024)

Experiments:
[1] = system: SW480 (primary colon cancer) cells; assay: SRB cytotoxicity assay, SW480; assay type: cell-based; settings: Homo sapiens, SW480; SRB assay, 48 h culture, mean ± SD, at least three independent experiments; compounds marked * : low solubility, real values might be lower; read-out: Cytotoxicity IC50, SW480
Method: (§1) The antiproliferative activity was tested on human primary (SW480) and metastatic (SW620) colon cancer, human prostate cancer (PC3), human liver cancer (HepG2), human breast cancer (MDA), human lung cancer (A549), and human immortalized keratinocyte (HaCaT) cell lines obtained from the American Type Culture Collection (ATCC, Rockville, MD, USA). The cells were cultured in EMEM (SW480 and SW620), RPMI 1640 (PC3) or DMEM High Glucose (HepG2, MDA, A549, and HaCaT) with stable glutamine supplemented with 10% heat-inactivated fetal bovine serum (FBS), penicillin (100 U/mL), and streptomycin (100 µg/mL) in 37 °C and 5% CO2/95% air humified incubator. The cells were grown until 80–90% confluence and then were harvested with 0.25% trypsin and used for the experiments. All the reagents for the cell culture were provided by VWR Chemicals.
(§2) Cytotoxicity was tested with the sulforhodamine B (SRB) assay according to the National Cancer Institute protocol with slight modifications. Briefly, cells were seeded on a 96-well plate (5 × 10^3 cells per well). After 24 h incubation, zero-time control cells were fixed with TCA (final concentration 5%) for 1 h at 4 °C. […] The untreated cells were used as the control. After incubation, the cells were fixed with TCA (final concentration 5%) for 1 h at 4 °C, gently washed 4 times with tap water, and left for drying. The dried fixed cells were incubated with SRB solution (0.05% SRB in 1% acetic acid) for 30 min rt, washed four times with 1% acetic acid, and left for drying. The dried cells were dissolved in 10 mM Tris-base solution (pH 10.5) and the absorbance was read at 510 nm.
(§3) The cell viability was presented as a percent of SRB reduction in the treated cells versus that in control cells. The mean absorbance for control cells was assumed as 100%. No-cell control (blank well) absorbance was assumed as 0%, unless the compound was cytostatic, then 0% referred to zero-time control. The IC50 values were calculated using the GraphPad Prism 10.1.2 (324) (USA) software. The most cytotoxic compounds (8 and 20) were selected for further in vitro experiments.

[2] = system: SW620 (metastatic colon cancer) cells; assay: SRB cytotoxicity assay, SW620; assay type: cell-based; settings: Homo sapiens, SW-620; SRB assay, 48 h culture, mean ± SD, at least three independent experiments; compounds marked * : low solubility, real values might be lower; read-out: Cytotoxicity IC50, SW620
Method: as §1, §2, §3

[3] = system: PC3 (prostate cancer) cells; assay: SRB cytotoxicity assay, PC3; assay type: cell-based; settings: Homo sapiens; SRB assay, 48 h culture, mean ± SD, at least three independent experiments; compounds marked * : low solubility, real values might be lower; read-out: Cytotoxicity IC50, PC3
Method: as §1, §2, §3

[4] = system: HepG2 (liver cancer) cells; assay: SRB cytotoxicity assay, HepG2; assay type: cell-based; settings: Homo sapiens, HepG2; SRB assay, 48 h culture, mean ± SD, at least three independent experiments; compounds marked * : low solubility, real values might be lower; read-out: Cytotoxicity IC50, HepG2
Method: as §1, §2, §3

[5] = system: MDA (breast cancer) cells; assay: SRB cytotoxicity assay, MDA; assay type: cell-based; settings: Homo sapiens; SRB assay, 48 h culture, mean ± SD, at least three independent experiments; compounds marked * : low solubility, real values might be lower; read-out: Cytotoxicity IC50, MDA
Method: as §1, §2, §3

A549 (lung cancer) cells = assay: SRB cytotoxicity assay, A549; assay type: cell-based; settings: Homo sapiens, A549; SRB assay, 48 h culture, mean ± SD, at least three independent experiments; compounds marked * : low solubility, real values might be lower; read-out: Cytotoxicity IC50, A549
Method: as §1, §2, §3

[6] = SRB cytotoxicity assay, HaCaT; assay type: cell-based; settings: human, 48 h culture, mean ± SD, at least three independent experiments, compounds marked * : low solubility, real values might be lower
Method: as §1, §2, §3

HaCaT cells = assay: Cell cycle analysis (PI, flow cytometry), HaCaT; assay type: cell-based, human; settings: 24 h treatment; for Cell cycle phase arrest (ratio G2/M to G0/G1): 1.5 and 2 nM CA4, 25, 30, 40 mM 8, 15, 20, 30 mM 20
Method: (§4) The cell cycle was assessed for the compounds 8 and 20 and the combretastatin CA4 as a reference compound. The compounds were most cytotoxic to the MDA and A549 cancerous cell lines; thus, these cell lines were selected for further analyses. The HaCaT cell line was chosen to represent non-cancer cells. For the experiment, the cells were seeded on 6-well plates (5 × 10^4 cells per well). After 24 h of incubation, the cells were treated with the compounds in selected concentrations (1.5 and 2 nM for CA4; […]) and incubated for the next 24 h. Then, the cells were detached with 0.25% trypsin, washed with 0.9% NaCl, and fixed with 70% ethanol at 4 °C for at least 16 h. For drying, the cells were washed twice with 0.9% NaCl, resuspended in 50 μg/mL propidium iodide (PI) and 100 μg/mL RNase in PBS and incubated for 30 min at 37 °C. The cell cycle distribution was analyzed by flow cytometer (FACS Verse, Becton, Dickinson and Company, Franklin Lakes, NJ, USA).

MDA cells = assay: Cell cycle analysis (PI, flow cytometry), MDA; assay type: cell-based, human; settings: 24 h treatment; for Cell cycle phase arrest (ratio G2/M to G0/G1): 1.5 and 2 nM CA4, 25, 30, 40 mM 8, 15, 20, 30 mM 20
Method: as §4

A549 cells = assay: Cell cycle analysis (PI, flow cytometry), A549; assay type: cell-based, human; settings: A549, 24 h treatment; for Cell cycle phase arrest (ratio G2/M to G0/G1): 1.5 and 2 nM CA4, 25, 30, 40 mM 8, 15, 20, 30 mM 20
Method: as §4

tubulin = assay: In vitro tubulin polymerization (turbidometry at 340 nm, BK004P kit); assay type: biochemical, porcine; settings: for Effect on in vitro tubulin polymerization: 37 °C, 60 min, absorbance 340 nm, CA-4 5 μM, colchicine 5 μM, compounds 8 and 20 at 20 or 100 μM; for Concentration dependence of the acceleration of tubulin polymerization: 20 and 100 μM
Method: The kinetics of microtubule assembly was assessed by measuring absorbance at 340 nm over time.
The assembly of purified bovine tubulin was monitored using a BK004P kit, purchased from Cytoskeleton Inc. (Denver, CO, USA). The assay was performed according to the manufacturer’s instructions using the standard assay conditions. […] Light was scattered proportionally to the concentration of the polymerized microtubules in the assay. Then, the tubulin assembly was monitored by turbidometry at 340 nm in a MultiscanGo spectrophotometer (ThermoFisher Scientific, Carlsbad, CA, USA) for 60 min. The time dependence of the tubulin polymerization was presented in the form of graphs prepared in the GraphPad Prism 8.4.3.686 (Boston, MA, USA) software.

[7] = design: method as in earlier work; settings: in contrast to the original compound; cited from earlier work
[8] = system: six human cancer cell lines (SW480, SW620, PC3, HepG2, MDA, A549) and HaCaT; assay: SRB cytotoxicity assay, whole panel; assay type: cell-based; settings: Homo sapiens, depending on the compound and cell line, read-out: IC50 over the cell line panel
Method: The antiproliferative properties of the studied combretastatin derivatives were tested on six human cancer cell lines, including primary colon (SW480), metastatic colon (SW620), prostate (PC3), liver (HepG2), breast (MDA), and lung (A549) cancer cells, and non-tumor human immortalized keratinocyte cell line (HaCaT) using the sulforhodamine B (SRB) assay. […] No selectivity was observed against the tumor cell lines when compared to that against the non-tumor cell line. Nevertheless, these values were much higher than the IC50 of the reference compounds (<0.2 μM).
as §1, §2, §3

[9] = HaCaT immortalized keratinocyte cells (non-tumor cell line)

`COc1ccc(/C=C\c2cc(OC)c(OC)c(OC)c2)cc1O` [CA4, combretastatin A-4] showed an IC50 [1] of 0.00281 ± 0.00017 µM, an IC50 [2] of 0.00221 ± 0.00088 µM and an IC50 [3] of 0.0021 ± 0.00026 µM. It also gave an IC50 [4] of 0.00158 ± 0.00019 µM, an IC50 [5] of 0.00372 ± 0.00027 µM and an IC50 (A549 (lung cancer) cells) of 0.00343 ± 0.00096 µM. For the same compound, the IC50 at 48 h ([6]; non-tumor cell line) was 0.00427 ± 0.00047 µM, the “DNA fragmentation (subG1 phase)” value (HaCaT cells) was “appearance of the subG1 phase was observed” and the “Cell cycle phase arrest (ratio G2/M to G0/G1)” value (HaCaT cells) was “G2 phase arrest”. For the same compound, the “DNA fragmentation (subG1 phase)” value (MDA cells) was “statistically significant differences between subG1 populations were observed”, the “Cell cycle phase arrest (ratio G2/M to G0/G1)” value (MDA cells) was “no statistically significant differences” and the “Cell cycle phase arrest (ratio G2/M to G0/G1)” value (A549 cells) was “no statistically significant differences”. The “Effect on in vitro tubulin polymerization” value (from here on “Effect”) (tubulin) was “inhibited tubulin polymerization”.
In the case of `COc1ccc(/C=C\c2cc(OC)c(OC)c(OC)c2)cc1OP(=O)(O)O` [Combretastatin A4 phosphate, combretastatin A-4 disodium phosphate], the Water solubility [7] is listed as “water-soluble”.
For `COc1ccc(/C(=C\c2cc(OC)c(OC)c(OC)c2)C(=O)OCCCCBr)cc1Br` [Compound 8], the IC50 [1] was 32.7 ± 6.7 µM, the IC50 [2] was 24.2 ± 8.4 µM and the IC50 [3] was 31 ± 5.5 µM. For the same compound, the IC50 [4] was 25.5 ± 6.3 µM, the IC50 [5] was 23.1 ± 7.7 µM and the IC50 (A549 (lung cancer) cells) was 19.6 ± 2 µM. For the same compound, the IC50 at 48 h [6, 9] was 23.9 ± 3.9 µM, the IC50 [8] was 18.8 to 32.7 µM and the “DNA fragmentation (subG1 phase)” value (HaCaT cells) was “appearance of the subG1 phase was observed”. The “Cell cycle phase arrest (ratio G2/M to G0/G1)” value (HaCaT cells) was “G0/G1 phase arrest”, the “DNA fragmentation (subG1 phase)” value (MDA cells) was “statistically significant differences between subG1 populations were observed” and the “Cell cycle phase arrest (ratio G2/M to G0/G1)” value (MDA cells) was “not observed”. For the same compound, the “DNA fragmentation (subG1 phase)” value (A549 cells) was “certain differences were noted”, the “Cell cycle phase arrest (ratio G2/M to G0/G1)” value (A549 cells) was “G0/G1 phase arrest” and the “Concentration dependence of the acceleration of tubulin polymerization” value (tubulin) was “concentration-dependent”. For the same compound, the “Effect” value (tubulin) was “enhanced tubulin polymerization”.
`CCCCN(CCCC)C(=O)/C(=C/c1cc(OC)c(OC)c(OC)c1)c1ccc(OC)c(Br)c1` [Compound 20] showed an IC50 [1] of 18.8 ± 0.8 µM, an IC50 [2] of 20.9 ± 2.9 µM and an IC50 [3] of 23.7 ± 10.3 µM. It also gave an IC50 [4] of 25.8 ± 9.6 µM, an IC50 [5] of 19 ± 7.1 µM and an IC50 (A549 (lung cancer) cells) of 19.4 ± 2.2 µM. For the same compound, the IC50 at 48 h [6, 9] was 20.5 ± 9.7 µM, the IC50 [8] was 18.8 to 32.7 µM and the “DNA fragmentation (subG1 phase)” value (HaCaT cells) was “appearance of the subG1 phase was observed”. The “Cell cycle phase arrest (ratio G2/M to G0/G1)” value (HaCaT cells) was “G0/G1 phase arrest”, the “Cell cycle phase arrest (ratio G2/M to G0/G1)” value (MDA cells) was “G0/G1 phase arrest” and the “DNA fragmentation (subG1 phase)” value (A549 cells) was “certain differences were noted”. For the same compound, the “Cell cycle phase arrest (ratio G2/M to G0/G1)” value (A549 cells) was “G0/G1 phase arrest”, the “Concentration dependence of the acceleration of tubulin polymerization” value (tubulin) was “on a similar level” and the “Effect” value (tubulin) was “enhanced tubulin polymerization”.
